Data on five compounds can be found in ChEMBL document CHEMBL3608236, “Understanding the chemistry behind the antioxidant activities of butylated hydroxytoluene (BHT): a review” (Eur J Med Chem, 2015).

As usually defined, the IC50 is the concentration at which inhibition is half-maximal.

Converted amounts (≈) assume the structure as drawn.

A short description of the series: Antioxidant activity assessed as hydrogen peroxide scavenging activity. The series is classed as physicochemical.

Take `O=[N+]([O-])c1cccc(/C=N/n2c(S)nnc2-c2ccc(O)cc2)c1`: the concentration for half-maximal inhibition (IC50) amounted to 38 µg/mL (≈ 111 µM).

Turning to `Oc1ccc(-c2nnc(S)n2/N=C/c2ccccc2)cc1`, the IC50 came to 24 µg/mL (≈ 81 µM).

For the compound `O=[N+]([O-])c1ccccc1/C=N/n1c(S)nnc1-c1ccc(O)cc1`, the IC50 came to 32 µg/mL (≈ 93.7 µM).

Regarding `Oc1ccc(-c2nnc(S)n2/N=C/c2cccc(O)c2)cc1`, the IC50 was 20 µg/mL (≈ 64 µM). As for `Oc1ccc(-c2nnc(S)n2/N=C/c2ccccc2Cl)cc1`, the figure is 60 µg/mL (≈ 181 µM).
